US20210255193A1, “LYSINE REACTIVE PROBES AND USES THEREOF” (The Scripps Research Institute, priority 2017, published 2021)
Blank lines part the entries; values can stand above or below the compound they belong to.

Experiments:
Assay in all cases: competitive isoTOP-ABPP
[1] = target: T1, GABARAPL2 Gamma-aminobutyric acid receptor-associated protei (Homo sapiens, UniProt P60520); type: binding; conditions: 50 uM, in vitro; for isoTOP-ABPP ratio (R) at liganded lysine P60520_K46: sol, 231
T1 construct: isoTOP-ABPP experiments performed in cell lysates (in vitro); endogenous in cells; host or cells: soluble proteome of human cancer cell lines (MDA-MB-231, Ramos, Jurkat)
In short: (§1)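 Here, isoTOP-ABPP measures loss of STP-alkyne labeling at individual lysines after fragment exposure in lysate. Activated esters are dosed at 50 μM, guanidinylating agents at 100 μM; the probe follows at 0.1 mM for 1 h. R ≥4 marks a liganded lysine.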

[2] = target: T2, NUDT2 Bis(5-nucleosyl)-tetraphosphatase (Homo sapiens, UniProt P50583); type: binding; set-up: key to isoTOP-ABPP reactivity ratio at lysine P50583_K89: R = MS1 peak area ratio, DMSO (heavy) / compound-treated (light); conditions: for isoTOP-ABPP ratio (R) at liganded lysine P50583_K89 / isoTOP-ABPP reactivity ratio at lysine P50583_K89: 50 uM, in vitro; for isoTOP-ABPP ratio (R) at liganded lysine P50583_K89: sol, 231; for isoTOP-ABPP reactivity ratio at lysine P50583_K89: 231 sol
T2 construct: isoTOP-ABPP experiments performed in cell lysates (in vitro); endogenous in cells
Description: (§2) In vitro covalent fragment treatment for isoTOP-ABPP. All compounds were made up as solutions in DMSO (100×) and were used at a final concentration of 50 μM for activated esters and 100 μM for guanidinylating agents. For each profiling sample, 0.5 ml of lysate was treated with 5 μl of the 100× compound stock solution or 5 μl of DMSO. Samples were treated with activated esters for
(§3) STP-alkyne labeling and click chemistry. For concentration-dependent reactivity measurements by isoTOP-ABPP, 0.5 ml proteome aliquots were treated at ambient temperature with 1 mM STP-alkyne 1 (5 μl of 100 mM stock in DMSO) and 0.1 mM STP alkyne 1 (5 μl of 10 mM stock in DMSO), respectively. For competitive isoTOP-ABPP, after in vitro fragment treatment (detailed above), the samples were labeled for 1 h at ambient temperature with 0.1 mM STP-alkyne 1 (5 μl of 10 mM stock in DMSO). Samples were conjugated by copper-mediated azide-alkyne cycloaddition (CuAAC) to either the light (1 mM STP-alkyne or fragment treated) or heavy (0.1 mM STP-alkyne or DMSO treated) TEV tags (10 μl of 5 mM stocks in DMSO, final concentration=100 μM) using tris(2-carboxyethyl)phosphine hydrochloride
(§4) R value calculation and processing. The ratios of light and heavy MS1 peaks for each unique peptide were quantified with a CIMAGE software using default parameters (3 MS1 acquisitions per peak and signal to noise threshold set to 2.5). For reactivity measurements by isoTOP-ABPP, the R value was calculated from the ratio of MS1 peak areas, comparing the 1 mM STP alkyne sample (light TEV tag) with the 0.1 mM STP alkyne sample (heavy TEV tag). For competitive isoTOP-ABPP, the R value was calculated from the ratio of MS1 peak areas, comparing the DMSO treated sample (heavy TEV tag) with the compound treated sample (light TEV tag). […] Ratios for unique peptide entries are calculated for each experiment; overlapping peptides with the same modified lysine (for example, different charge states, MudPIT chromatographic steps or tryptic termini) are grouped together and the median ratio is reported as the final ratio (R). The peptide ratios reported by CIMAGE were further filtered to ensure the removal or correction of low-quality ratios in each individual data set. The quality filters applied were the following: removal of half tryptic peptides; for ratios with high standard deviations from the median (90% of the median or above) the lowest ratio was taken instead of the median; removal of peptides with R=20 and only a single MS2 event triggered during the elution of the parent ion; manual annotation of all the peptides with ratios of 20, removing any peptides with low quality elution profiles that remained after the previous curation steps (only done for competitive isoTOP-ABPP).
(§5) Cross-data processing for fragment screening. For compound treated samples, biological replicates of the same condition were averaged, if the standard deviation was below 60% of the mean; otherwise, for lysines with at least one R value <4 for a particular compound, the lowest value of the ratio set was taken. For lysines, where all R values for a particular compound were ≥4, the average was reported. For peptides containing several possible modified lysines, the lysine with the highest number of quantification events was used for analysis and the remaining, redundant peptides were reported as alternative modification sites. Peptides included in the aggregate dataset (those used for further bioinformatics and statistical analyses) were required to have been quantified in 2 experiments for competitive isoTOP-ABPP. Lysines were categorized as liganded, if they had at least one ratio R≥4 (hit fragments). For liganded lysines with R=20 for all liganding events, lysines were required to have been quantified with R=20 in two separate experiments and were further required to have been quantified with R<20 in one additional experiment.

[3] = target: T3, SRP54 Signal recognition particle 54 kDa protein (Homo sapiens, UniProt P61011); type: binding; set-up: key to isoTOP-ABPP reactivity ratio at lysine P61011_K81: R = MS1 peak area ratio, DMSO (heavy) / compound-treated (light); capped at 20; conditions: for isoTOP-ABPP ratio (R) at liganded lysine P61011_K81: sol, 231
T3 construct: isoTOP-ABPP experiments performed in cell lysates (in vitro); endogenous in cells; host or cells: soluble proteome of human cancer cell lines (MDA-MB-231, Ramos, Jurkat)
Description: as §2, §3, §4, §5

[4] = target: T4, ECH1 Delta(3,5)-Delta(2,4)-dienoyl-CoA isomerase, mitochondrial (Homo sapiens, UniProt Q13011); type: binding; set-up: key to isoTOP-ABPP reactivity ratio at lysine Q13011_K112: R = MS1 peak area ratio, DMSO (heavy) / compound-treated (light); capped at 20; conditions: for isoTOP-ABPP ratio (R) at liganded lysine Q13011_K112: sol, 231
T4 construct: isoTOP-ABPP experiments performed in cell lysates (in vitro); endogenous in cells; host or cells: soluble proteome of human cancer cell lines (MDA-MB-231, Ramos, Jurkat)
T4 sequence (Q13011 34-328): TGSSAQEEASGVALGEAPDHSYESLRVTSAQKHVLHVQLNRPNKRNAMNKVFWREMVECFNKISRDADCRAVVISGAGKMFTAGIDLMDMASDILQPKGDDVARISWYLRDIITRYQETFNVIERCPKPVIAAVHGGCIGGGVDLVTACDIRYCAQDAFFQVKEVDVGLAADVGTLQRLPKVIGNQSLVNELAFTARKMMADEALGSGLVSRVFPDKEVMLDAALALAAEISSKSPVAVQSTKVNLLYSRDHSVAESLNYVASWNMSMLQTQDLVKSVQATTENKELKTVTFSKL
Description: as §2, §3, §4, §5

[5] = target: T5, NONO Non-POU domain-containing octamer-binding protein (Homo sapiens, UniProt Q15233); conditions: for isoTOP-ABPP ratio (R) at liganded lysine Q15233_K467: sol, 231
T5 construct: isoTOP-ABPP experiments performed in cell lysates (in vitro); endogenous in cells; host or cells: soluble proteome of human cancer cell lines (MDA-MB-231; Ramos and Jurkat also prepared)
T5 sequence (Q15233 1-471): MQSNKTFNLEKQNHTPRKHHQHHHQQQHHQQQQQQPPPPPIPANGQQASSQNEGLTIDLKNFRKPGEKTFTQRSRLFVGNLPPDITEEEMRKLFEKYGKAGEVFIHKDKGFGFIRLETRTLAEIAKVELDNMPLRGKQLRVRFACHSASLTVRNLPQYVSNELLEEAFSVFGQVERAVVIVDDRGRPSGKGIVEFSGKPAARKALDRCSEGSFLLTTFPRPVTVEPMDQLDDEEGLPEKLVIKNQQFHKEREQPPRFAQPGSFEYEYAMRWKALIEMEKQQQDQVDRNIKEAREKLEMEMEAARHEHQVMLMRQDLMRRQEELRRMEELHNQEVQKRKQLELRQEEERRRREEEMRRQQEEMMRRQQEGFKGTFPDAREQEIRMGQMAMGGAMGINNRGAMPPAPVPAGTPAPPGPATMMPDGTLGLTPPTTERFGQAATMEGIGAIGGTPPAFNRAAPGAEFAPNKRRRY
In short: as §1

T3 sequence (P61011 whole entry): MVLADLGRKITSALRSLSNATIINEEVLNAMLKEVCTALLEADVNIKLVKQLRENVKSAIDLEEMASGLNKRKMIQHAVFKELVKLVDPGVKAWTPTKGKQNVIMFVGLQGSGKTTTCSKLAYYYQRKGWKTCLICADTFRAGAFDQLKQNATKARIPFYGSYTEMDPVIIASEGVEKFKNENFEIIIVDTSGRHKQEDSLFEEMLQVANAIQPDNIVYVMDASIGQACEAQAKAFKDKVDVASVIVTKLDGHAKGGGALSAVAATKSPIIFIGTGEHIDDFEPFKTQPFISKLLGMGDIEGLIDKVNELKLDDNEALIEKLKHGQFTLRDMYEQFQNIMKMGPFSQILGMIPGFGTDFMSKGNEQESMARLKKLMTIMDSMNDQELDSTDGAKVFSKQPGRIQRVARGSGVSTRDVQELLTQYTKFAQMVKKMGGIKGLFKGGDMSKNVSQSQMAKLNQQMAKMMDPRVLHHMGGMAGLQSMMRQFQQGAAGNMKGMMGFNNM
T1 sequence (P60520 1-116 limits assumed): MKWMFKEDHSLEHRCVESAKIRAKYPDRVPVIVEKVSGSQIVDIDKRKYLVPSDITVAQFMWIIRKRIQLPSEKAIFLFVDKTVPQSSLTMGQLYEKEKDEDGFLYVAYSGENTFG
T2 sequence (P50583 whole entry): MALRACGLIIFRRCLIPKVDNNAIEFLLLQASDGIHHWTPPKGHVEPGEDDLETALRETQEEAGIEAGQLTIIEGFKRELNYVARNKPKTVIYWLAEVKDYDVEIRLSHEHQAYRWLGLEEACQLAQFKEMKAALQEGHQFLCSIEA

Structure (SMILES): O=C(Oc1ccc([N+](=O)[O-])cc1[N+](=O)[O-])c1ccc2ccccc2n1 [fragment 35, 2,4-Dinitrophenyl quinoline-2-carboxylate]
- isoTOP-ABPP ratio (R) at liganded lysine P60520_K46 [1]: 0.9
- isoTOP-ABPP ratio (R) at liganded lysine P50583_K89 [2]: 1.6
- isoTOP-ABPP ratio (R) at liganded lysine P61011_K81 ([3]; 50 uM, in vitro): 0.8
- isoTOP-ABPP ratio (R) at liganded lysine Q13011_K112 ([4]; 50 uM, in vitro): 1.0

- isoTOP-ABPP reactivity ratio at lysine P50583_K89 [2]: 0.9
- isoTOP-ABPP reactivity ratio at lysine Q15233_K467 ([5]; 50 uM, 231 sol, in vitro): 1.0
Structure (SMILES): O=C(Oc1c(F)c(F)c(F)c(F)c1F)C1CCN(C(=O)OCc2ccccc2)CC1 [fragment 24, 1-Benzyl 4-(pentafluorophenyl) piperidine-1,4-dicarboxylate]

- isoTOP-ABPP reactivity ratio at lysine P60520_K46 ([1]; 231 sol): 1.2
- isoTOP-ABPP reactivity ratio at lysine P50583_K89 [2]: 1.0
- isoTOP-ABPP reactivity ratio at lysine P61011_K81 ([3]; 50 uM, 231 sol, in vitro): 0.8
- isoTOP-ABPP reactivity ratio at lysine Q13011_K112 ([4]; 50 uM, 231 sol, in vitro): 2.7
Structure (SMILES): O=C(Oc1c(F)c(F)c(F)c(F)c1F)c1ccc2ccccc2n1 [fragment 25, Pentafluorophenyl quinoline-2-carboxylate]

Structure (SMILES): O=C(Oc1ccc([N+](=O)[O-])cc1[N+](=O)[O-])c1ccccc1Nc1cccc(C(F)(F)F)c1 [fragment 40, 2,4-Dinitrophenyl 2-((3-(trifluoromethyl)phenyl)amino)benzoate]
- isoTOP-ABPP ratio (R) at liganded lysine P50583_K89 [2]: 0.9
- isoTOP-ABPP ratio (R) at liganded lysine Q15233_K467 ([5]; 50 uM, in vitro): 4.1
- isoTOP-ABPP ratio (R) at liganded lysine Q13011_K112 ([4]; 50 uM, in vitro): 1.0

Structure (SMILES): O=C(ON1C(=O)CCC1=O)c1cc(C(F)(F)F)cc(C(F)(F)F)c1 [fragment 46, 3,5-Bis(trifluoromethyl)benzoic acid NHS ester]
- isoTOP-ABPP ratio, lysine P50583_K89 ([2]; 50 uM_231_sol_in vitro, possible other lysine P50583_K87): 1.1
- isoTOP-ABPP ratio, lysine P61011_K81 ([3]; 50 uM_231_sol_in vitro): 0.9
- isoTOP-ABPP ratio, lysine Q15233_K467 ([5]; 50 uM_231_sol_in vitro): 0.4
- isoTOP-ABPP ratio, lysine Q13011_K112 ([4]; 50 uM_231_sol_in vitro): 0.8

Structure (SMILES): O=C(Oc1ccc([N+](=O)[O-])cc1[N+](=O)[O-])c1ccc(Oc2ccccc2)cc1 [fragment 39, 2,4-Dinitrophenyl 4-phenoxybenzoate]
- isoTOP-ABPP ratio (R) at liganded lysine P60520_K46 [1]: 0.8
- isoTOP-ABPP ratio (R) at liganded lysine P50583_K89 [2]: 2.4
- isoTOP-ABPP ratio (R) at liganded lysine P61011_K81 ([3]; 50 uM, in vitro): 0.9
- isoTOP-ABPP ratio (R) at liganded lysine Q13011_K112 ([4]; 50 uM, in vitro): 1.1

Structure (SMILES): CC(=O)Oc1ccc([N+](=O)[O-])cc1[N+](=O)[O-] [fragment 43, 2,4-Dinitrophenyl acetate]
- isoTOP-ABPP ratio (R) at liganded lysine P50583_K89 [2]: 1.1
- isoTOP-ABPP ratio (R) at liganded lysine P61011_K81 ([3]; 50 uM, in vitro): 20.0
- isoTOP-ABPP ratio (R) at liganded lysine Q15233_K467 ([5]; 50 uM, in vitro): 3.1
- isoTOP-ABPP ratio (R) at liganded lysine Q13011_K112 ([4]; 50 uM, in vitro): 1.2
